Patent US4551547A, “Biocidal 2-aryl-1, 3-cyclopentanedione enol ester compounds” (Union Carbide Corporation, priority 1983, dated 1985)
Values after ≈ are worked out from the molar mass of the structure shown.

Tests used:
Corn = assay: Post-emergent herbicidal test, corn; assay type: in vivo; set-up: key: 1: no perceptible injury; 2: intermediate degrees of injury; 3: intermediate degrees of injury; 4: intermediate degrees of injury; 5: the plant was dead; conditions: 2500 parts per million, after ten days; for Post-emergent Herbicidal, Corn: Table II; for Post Emergent Herbicidal, Corn: Table III
Procedure: (§1) Suspensions of the test compounds were prepared by dissolving one gram of compound in 50 milliliters of acetone in which had been dissolved 0.1 gram (10 percent of the weight of compound) of an alkylphenoxyethanol sufactant, as an emulsifying or dispersing agent. The resulting solution was mixed into 160 milliliters of water to give roughly 200 milliliters of a suspension containing the compound in finely divided form. The thus prepared stock suspension contained 0.5 percent by weight of compound. The test concentrations employed in the tests described below were obtained by diluting the stock suspension with water. The test procedures were as follows:
(§2) Experiments were also conducted to determine the phytotoxicity of representative compositions with respect to healthy fresh plants. Solutions of the compounds were prepared as described above to provide a concentration of 2500 parts per million of the test compound. The test plants were sprayed in accordance with the procedure described above for the Mite Foliage Spray Test so as to deliver approximately 100 milliliters of test solutions to the leaves of each plant tested. The sprayed plants and controls were set aside for approximately one hour to allow the solutions to dry and were then placed in the greenhouse. After ten days the plants were visually inspected to determine the extent of foliage injury. A rating of 1 indicates no perceptible injury; 5 indicates the plant was dead and ratings of 2, 3 and 4 indicate intermediate degrees of injury based upon the number and extent to which leaves were injured.

Soybean = assay: Post-emergent herbicidal test, soybean; assay type: in vivo; set-up: key: 1: no perceptible injury; 2: intermediate degrees of injury; 3: intermediate degrees of injury; 4: intermediate degrees of injury; 5: the plant was dead; conditions: 2500 parts per million, after ten days; for Post-emergent Herbicidal, Soybean: Table II; for Post Emergent Herbicidal, Soybean: Table III
Procedure: as §1, §2

Tomato = assay: Post-emergent herbicidal test, tomato; assay type: in vivo; set-up: key: 1: no perceptible injury; 2: intermediate degrees of injury; 3: intermediate degrees of injury; 4: intermediate degrees of injury; 5: the plant was dead; conditions: 2500 parts per million, after ten days; for Post-emergent Herbicidal, Tomato: Table II; for Post Emergent Herbicidal, Tomato: Table III
Procedure: as §1, §2

[1] = test system: egg of the two-spotted mite; assay: Mite Ovicide Test (eggs); assay type: in vivo, Tetranychus urticae (Koch); set-up: key to Miticidal, Egg: A: Excellent Control; B: Partial Control; No Control; conditions: for Miticidal, Egg: Table II, unhatched eggs after four days; for LC50: Tetranychus urticae, Table III, ppm required for a 50 percent kill of eggs, read-out: Miticidal LD50, Egg
Procedure: Suspensions of the test compounds were prepared by dissolving one gram of compound in 50 milliliters of acetone in which had been dissolved 0.1 gram (10 percent of the weight of compound) of an alkylphenoxyethanol sufactant, as an emulsifying or dispersing agent. The resulting solution was mixed into 160 milliliters of water to give roughly 200 milliliters of a suspension containing the compound in finely divided form. The thus prepared stock suspension contained 0.5 percent by weight of compound. The test concentrations employed in the tests described below were obtained by diluting the stock suspension with water. The test procedures were as follows: The test organism was the egg of the two-spotted mite (Tetranychus urticae (Koch)), as obtained from adults reared on […] bean plants under controlled conditions of 80±5° F. and 50±5 percent relative humidity. Heavily infested leaves from a stock culture were placed on the primary leaves of two bean plants six to eight inches in height growing in a two-and-a-half inch clay pot. Females were allowed to oviposit for a period of 48 hours and the leaves of the infested plants were dipped in a solution containing 800 parts of tetraethyl pyrophosphate per million parts of water in order to destroy the reproductory forms and thus prevent further egg laying. […] The plants were allowed to dry thoroughly. The test compounds were formulated by diluting the stock suspension with water to give a suspension containing varying amounts of test compound per million parts of final formulation. The potted plants (one pot per compound) were placed on a revolving turntable and sprayed with 100-110 milliliters of test compound formulation by use of a DeVilbis spray gun set at 40 spig. air pressure. This application which lasted 30 seconds, was sufficient to wet the plants to run-off. As a control, 100-110 milliliters of a water solution containing acetone and emulsifier in the same concentrations as the test compound formulation, but containing no test compound, were also sprayed on plants infested with eggs. The sprayed plants were held at 80±5° F. and 50±5 percent relative humidity for four days, after which a microscopic examination was made of unhatched (dead) and hatched (living) eggs. In these tests the pesticidal activity of the compounds against mites and mite eggs was rated as follows: Tests were conducted in accordance with the procedures given at pages 17 to 21 supra. The results are expressed in the same manner as used in Table II, except with respect to miticidal activity. For mite adult and mite egg comparison purposes, results are given in parts per million (ppm) required for a 50 percent kill of mites or eggs, respectively.

[2] = test system: Red root pigweed (Amaranthus); assay: Preliminary herbicide seed germination test (pre-emergent), red root pigweed; assay type: in vivo, Amaranthus retroflexus; set-up: key: 5: no seedling emerged; 4: few seedlings emerged and/or very severe stunting; 3: moderate reduction in stand and/or moderate stunting.; 2: very slight reduction in stand and/or slight stunting; 1: no injury, seedlings appear no different with respect to stand or growth than untreated controls; conditions: ten to twelve days after application
Procedure: as §1
(§3) The following seeds were used in this test:
Red root pigweed--Amaranthus retroflexus
(§4) Two […] mixtures were prepared as follows:
(§5) Each of the above mixtures was rolled separately in 5 gallon containers for approximately one-half hour on ball mill to insure uniform mixing of seeds and soil. For each compound four 3-inch pots were filled with soil to within 11/2 inches of top of pots. To two of these pots were added 70 cc. of Mixture I. To the remaining 2 pots were added 70 cc. of Mixture II. The seed-soil mixture was tamped firmly, and the pots were removed to the greenhouse and watered lightly. About 2 hours after planting, 25 milliliters of the test formulation were added to one pot containing Mixture I and one pot containing Mixture II. An equal volume of a water solution containing acetone and an emulsifier in the same concentration as the herbicidal mixture but without the candidate herbicide was also added to each of the soil-seed mixtures. These pots are used as check or control units. The test compounds were formulated by diluting the stock suspension with water to obtain the desired concentration of the compound in parts per million of the final formulation. Each compound was tested at the same concentration. […] Ratings were made according to the following designations: […]

Mustard = assay: Preliminary herbicide seed germination test (pre-emergent), mustard; assay type: in vivo, Brassica pincea var. foliosa (Florida broadleaf); set-up: key: 5: no seedling emerged; 4: few seedlings emerged and/or very severe stunting; 3: moderate reduction in stand and/or moderate stunting.; 2: very slight reduction in stand and/or slight stunting; 1: no injury, seedlings appear no different with respect to stand or growth than untreated controls; conditions: ten to twelve days after application
Procedure: as §1, §3
Mustard--Brassica pincea var. foliosa (Florida broadleaf)
as §4, §5

| SMILES | Post-emergent Herbicidal, Corn (Corn) | Post-emergent Herbicidal, Soybean (Soybean) | Post-emergent Herbicidal, Tomato (Tomato) | Miticidal, Egg [1] | Pre-emergent Herbicidal, Amaranthus ([2]; Table II) | Pre-emergent Herbicidal, Mustard (Mustard; Table II) | Post Emergent Herbicidal, Corn (Corn) | Post Emergent Herbicidal, Soybean (Soybean) | Post Emergent Herbicidal, Tomato (Tomato) | LC50 [1] | Pre-emergent Herbicidal, Amaranthus ([2]; Table III) | Pre-emergent Herbicidal, Mustard (Mustard; Table III) |
| --- | --- | --- | --- | --- | --- | --- | --- | --- | --- | --- | --- | --- |
| CC(C)C(=O)OC1=C(c2ccc(Cl)cc2Cl)C(=O)CC1 [Compound 4] | 4 | 2 | 2 | B | 1 | 1 | – | – | – | – | – | – |
| CCCCCCCCCCCCCCCC(=O)OC1=C(c2cc(C)ccc2C)C(=O)C2CCCCC12 (stereo not drawn) [Compound 33] | 1 | 1 | 1 | A | 1 | 1 | – | – | – | – | – | – |
| Cc1ccccc1C1=C(OC(=O)C(C)(C)C)C2CCCCC2C1=O (stereo not drawn) [drawing 24] | – | – | – | – | – | – | 5 | 3 | 1 | 16 µg/mL (≈ 49 µM) | 2 | 3 |
| CCCCC(CC)C(=O)OC1=C(c2ccc(Cl)cc2Cl)C(=O)CC1 (stereo not drawn) [Compound 5] | 3 | 2 | 2 | A | 1 | 1 | – | – | – | – | – | – |
| CCCCCCCCCCCCCCCC(=O)OC1=C(c2ccccc2C)C(=O)C2CCCCC12 (stereo not drawn) [drawing 17] | – | – | – | – | – | – | 2 | 2 | 1 | 500 µg/mL (≈ 1040 µM) | 2 | 3 |
| CC(=O)OC1=C(c2ccc(C)cc2C)C(=O)C2CCCCC12 (stereo not drawn) [Compound 25] | 3 | 2 | 2 | A | 3 | 3 | – | – | – | – | – | – |
| CCCCCCCCCC(=O)OC1=C(c2ccccc2C)C(=O)c2ccccc21 [reference compound] | – | – | – | – | – | – | 1 | 0 | 1 | 500 µg/mL (≈ 1280 µM) | 1 | 1 |
| CCCCC(CC)C(=O)OC1=C(c2cc(C)ccc2C)C(=O)C(C)C1 (stereo not drawn) [Compound 17] | 3 | 3 | 1 | A | 3 | 1 | – | – | – | – | – | – |
| CCCCCCCCCCCCCCCC(=O)OC1=C(c2ccccc2C)C(=O)C2CCCCC12 (stereo not drawn) [Compound 24] | 2 | 2 | 1 | A | 2 | 3 | – | – | – | – | – | – |
| Cc1ccc(C)c(C2=C(OC(=O)C(C)C)CCC2=O)c1 [Compound 12] | 2 | 3 | 3 | B | 1 | 1 | – | – | – | – | – | – |
| Cc1ccc(C)c(C2=C(OC(=O)C(C)(C)C)C3CCCCC3C2=O)c1 (stereo not drawn) [Compound 31] | 2 | 2 | 1 | A | 1 | 1 | – | – | – | – | – | – |
| CCCCC(CC)C(=O)OC1=C(c2ccccc2Cl)C(=O)CC1 (stereo not drawn) [Compound 1] | 4 | 3 | 2 | A | 5 | 5 | – | – | – | – | – | – |
| CC(=O)OC1=C(c2cc(C)ccc2C)C(=O)C2CCCCC12 (stereo not drawn) [Compound 28] | 3 | 2 | 1 | A | 1 | 1 | – | – | – | – | – | – |
| CCCCC(CC)C(=O)OC1=C(c2ccc(C)cc2C)C(=O)C2CCCCC12 (stereo not drawn) [Compound 26, 3-(2-ethylhexanoyloxy)-2-(2',4'-dimethylphenyl)-4,5,6,7,8,9-hexahydro-2-indenone] | 5 | 2 | 2 | A | 1 | 1 | – | – | – | – | – | – |
| CCCCC(CC)C(=O)OC1=C(c2ccccc2C)C(=O)c2ccccc21 (stereo not drawn) [reference compound] | – | – | – | – | – | – | 1 | 0 | 1 | 60 µg/mL (≈ 166 µM) | 1 | 1 |
| CC(=O)OC1=C(c2cc(C)ccc2C)C(=O)C(C)C1 (stereo not drawn) [Compound 15] | 3 | 2 | 2 | B | 3 | 2 | – | – | – | – | – | – |
| CCCCCCCCCC(=O)OC1=C(c2ccccc2C)C(=O)C2CCCCC12 (stereo not drawn) [Compound 23] | 5 | 3 | 1 | A | 3 | 3 | – | – | – | – | – | – |
| CC(=O)OC1=C(c2cc(C)ccc2C)C(=O)CC1 [Compound 11] | 2 | 2 | 3 | C | 3 | 3 | – | – | – | – | – | – |
| CCCCCCCCCC(=O)OC1=C(c2cc(C)ccc2C)C(=O)C2CCCCC12 (stereo not drawn) [drawing 19] | – | – | – | – | – | – | 2 | 1 | 1 | 8 µg/mL (≈ 19.5 µM) | 1 | 1 |
